In patent US20240008971A1, “Ophthalmic Implant” (Nacuity Pharmaceuticals, Inc., priority 2022, published 2024):
pKi: −log10 of the molar value. “Also recorded” adds a separate entry of the source.

Legend:
[1] = target: glutamate cysteine ligase (GCL, EC 6.3.2.2); settings: read-out: Ki (nonallosteric competitive inhibition of GCL); cited from earlier work
[2] = system: rd10 mice; settings: cited from earlier work
[3] = oral dose of 600 mg in humans; cited from earlier work
[4] = system: H2O2-induced cataract in isolated porcine lens; assay: H2O2-induced cataract in isolated porcine lens; type: cell-based, pigs; settings: for H2O2-induced cataract: 24 hours pre-incubation, then H2O2 plus GO 6 hours
Description: Method: Lenses were harvested from fresh eyes from pigs. These lenses were first incubated in 4-5 mL TC-199 medium and 1% pig serum in a 12-well plate for two hours. At the end of the incubation, lenses were imaged under darkfield microscopy and only clear, transparent lenses were used for further experimentation. Lens were pre-incubated with NAC, NACA, diNACA for 24 hours. After the pretreatment, the lenses were transferred to media containing hydrogen peroxide (H2O2) plus GO for maintaining a constant H2O2 level during incubation similarly to a published method (Wang et al., 1997). At the end of the 6-hour incubation, lenses were imaged under darkfield microscopy (FIG. 3).

[5] = system: retinas of diabetic rats; settings: cited from earlier work
[6] = system: isolated rat lens; assay: Effect of NACA or diNACA alone on rat lens transparency; type: cell-based, Wistar rats; settings: 10 mM, no oxidative agent
Description: (§1) Lenses were extracted from 3-week-old male or female Wistar rats using an existing Animal Ethics Approval for tissue collection. Rats were euthanized using CO2, eyes were enucleated and lenses dissected from the globe and incubated in either Dulbecco's modified eagle's medium (low glucose; DMEM; Savion et al., 2019) or Media 199, no phenol red with Glutamine, with 1% penicillin, streptomycin, neomycin mixture for 6 hours, under normoxic conditions with 5% CO2. At the end of the 6-hour incubation, lenses were imaged under darkfield and brightfield microscopy and only clear, transparent lenses were used for further experimentation.
(§2) Control group: Lenses were incubated for a further 18 hours at which time, darkfield and brightfield images were taken. Lenses were placed in fresh media and then incubated for another 24 hours in DMEM or M199 with 1% PSN. Images were then taken to assess lens transparency.
(§3) 10 mM diNACA pre-treatment group: After the initial 6-hour incubation, clear lenses were cultured in 10 mM diNACA (NPI-002) for 18 hours. Images were taken, and then lenses were placed in fresh media containing 1 μg/mL of glucose oxidase (GO). Lenses were then incubated for a further 24 hours, after which images were taken to assess lens transparency
(§4) 10 mM NACA pre-treatment group: After the initial 6-hour incubation, clear lenses were cultured in 10 mM NACA (NPI-001) for 18 hours. Images were taken, and then lenses placed in fresh media containing 1 μg/mL of GO. Lenses were then incubated for a further 24 hours, after which images were taken to assess lens transparency

[7] = system: GO-induced cataract in isolated rat lens; assay: GO-induced cataract in isolated rat lens; type: cell-based, Wistar rats; settings: for lens opacities after GO-cataract induction: 10 mM pre-treatment 18 hours, then 1 μg/mL GO 24 hours, vs GO-cataract induction alone; for visibility of underlying grid after GO-cataract induction: 10 mM pre-treatment, then GO, vs GO group
Description: as §1, §2, §3, §4
Method: Isolated rat lenses were pre-treated with NACA or diNACA followed by GO.

[8] = system: rabbit; assay: NPI-002 IVT implant single dose 3-week safety study in rabbit; type: in vivo, New Zealand White rabbits; settings: resolved by Day 23, associated with 22-gauge needle injection procedure
Description: A study was conducted to evaluate intravitreal injection of di-NACA as suspension or implant and NACA solution in rabbit. The objectives were to assess safety and whether the implant could deliver diNACA, NACA, and NAC to ocular tissues. A sterile intravitreal implant containing diNACA was prepared (Formulation 1896-08, a fast-releasing implant; FIG. 7). Female New Zealand White rabbits were administered two NPI-002 IVT implants per eye (total dose of NPI-002, 0.8 mg/eye). One group of animals received IVT placebo implants without any test article.
Prior to placement on study, an ophthalmic examination was conducted on each rabbit including slit-lamp biomicroscopy and indirect ophthalmoscopy. Ocular findings were scored according to a modified McDonald-Shadduck Scoring.
Clinical ophthalmic examinations were performed at baseline and on Days 8 and 23 post-dose. General health observations were performed daily. Body weights were recorded at baseline and prior to termination.
Sterile NPI-002 or placebo IVT implants were provided pre-loaded in 22 G beveled needle with wire plunger (1 implant/needle) and injected into VH. NPI-002 suspension and NPI-001 solution were prepared in sterile phosphate buffer and injected into VH.
Animals were euthanized on Day 8, 15, or 23, and ocular tissue was collected and […]

[9] = Repeated dose topical ocular administration in rabbit: NACA in aqueous humor (LC-MS); type: in vivo, Dutch Belted rabbits
Description: A study was conducted to evaluate effects of diNACA or NACA topical ocular dosing in rabbit. Ophthalmic formulations were developed containing either 1% diNACA or 1% NACA that were used for repeated topical ocular instillation to Dutch Belted rabbits. Three animals per group were dosed four times a day at approximately 8:00 AM, 11:00 AM, 2:00 PM, and 4:00 PM on Days 1-6, and once on Day 7 at approximately 8:00 AM, via bilateral topical administration with each test article. Ocular tolerability was assessed at baseline and prior to the first daily dose by means of scoring chemosis, discharge, and hyperemia (Draize scoring). Ocular tissue was harvested at necropsy (Day 7). A qualified analytical LC-MS method was developed and used to quantitate NACA levels in aqueous humor (AH).

N[C@@H](CCC(=O)N[C@@H](CS)C(=O)NCC(=O)O)C(=O)O [GSH, c-L-glutamyl-L-cysteinyl-glycine]
pKi [1]: 2.64

CC(=O)N[C@@H](CS)C(=O)O [NAC, N-acetylcysteine]
oxidative damage, cone survival and function ([2]; rd10 mice, NAC in drinking water, vs untreated): dose-dependent, statistically significant reduction in oxidative damage and improvements in cone survival and function
time after administration at which no NAC is detectable [3]: 10 to 12 h
H2O2-induced cataract [4]: dose-dependently prevented H2O2-induced cataract
retinal pathological changes (retinopathy) ([5]; 3 and 5 months): alleviated the pathological changes
reactive oxygen species contents in the retinas ([5]; most significantly at 5 months): decreased reactive oxygen species
VEGF and ICAM-1 expression in retinal blood vessels ([5]; returned to basal levels after 5-month treatment): up-regulation was attenuated

CC(=O)N[C@@H](CSSC[C@H](NC(C)=O)C(N)=O)C(N)=O [diNACA, (2R,2R′)-3,3′-disulfanediyl bis(2-acetamidopropanamide)]
lens transparency after compound alone [6]: remained absolutely clear and transparent; also recorded: tolerated exposure to diNACA better than NACA
lens transparency after compound alone ([6]; listed as NPI-002): maintained lens transparency slightly better than NPI-001 (NACA) alone
lens opacities after GO-cataract induction [7]: reduced lens opacities
lens opacities after GO-cataract induction ([7]; listed as NPI-002): prevented oxidative-induced cataract
visibility of underlying grid after GO-cataract induction [7]: improved grid visibility
H2O2-induced cataract [4]: dose-dependently prevented H2O2-induced cataract
H2O2-induced cataract ([4]; listed as NPI-002): prevented oxidative-induced cataract
protective effects on the lens as compared with NAC, NACA ([4]; H2O2-induced cataract): better protective effects on the lens
clinical ophthalmic examination findings on Day 8 [8]: Mild to moderate conjunctival congestion, swelling and discharge
ocular penetration following topical ocular dosing [9]: penetrates the eye

N-acetylcysteine amide [NACA]
lens transparency after compound alone [6]: developed a subtle thin rim opacity on the edge; also recorded: slight ring opacity developed
visual parameters ([2]; mouse model of RP): improve, to a greater extent than NAC, visual parameters
preservation of cone function and survival compared to NAC ([2]; rd10 mice, 7-fold lower dose than NAC): greater preservation of cone function and survival
lens opacities after GO-cataract induction [7]: reduced opacities compared to cataract induction alone
visibility of underlying grid after GO-cataract induction [7]: more clearly visible
H2O2-induced cataract [4]: dose-dependently prevented H2O2-induced cataract
